Experimental findings from ChEMBL document CHEMBL1671742, “Overexpression of the adeB gene in clinical isolates of tigecycline-nonsusceptible Acinetobacter baumannii without insertion mutations in adeRS” (Antimicrob Agents Chemother, 2010) are described below.

As a reminder, the MIC is the lowest concentration found to suppress growth. A lower MIC goes with greater potency.

Common to all, as to type: functional
Assay [1] deals with Acinetobacter baumannii. The experiment in a line: Antibacterial activity against intI1-positive tigecycline-resistant Acinetobacter baumannii AB096 with PFGE subgroup B1 containing carbapenemase OXA-23 and OXA-51 by Etest.
For assay [2], the system named is Acinetobacter baumannii. The experiment in a line: Antibacterial activity against intI1-positive tigecycline-resistant Acinetobacter baumannii AB097 with PFGE subgroup B1 containing carbapenemase OXA-23 and OXA-51 by Etest.
Assay [3] concerns Acinetobacter baumannii. The assay is described as follows: Antibacterial activity against intI1-positive tigecycline-intermediate Acinetobacter baumannii AB127 with PFGE subgroup I containing carbapenemase OXA-23 and OXA-51 by Etest.
Assay [4] has as its system Acinetobacter baumannii. The assay is described as follows: Antibacterial activity against intI1-positive tigecycline-intermediate Acinetobacter baumannii AB099 with PFGE subgroup H containing carbapenemase OXA-23 and OXA-51 by Etest.
In assay [5] the test system is Acinetobacter baumannii. The assay is described as follows: Antibacterial activity against intI1-positive tigecycline-resistant Acinetobacter baumannii AB125 with PFGE subgroup A1 containing carbapenemase OXA-23 and OXA-51 by Etest.
Assay [6] has as its system Acinetobacter baumannii. The assay is described as follows: Antibacterial activity against intI1-positive tigecycline-resistant Acinetobacter baumannii AB134 with PFGE subgroup A2 containing carbapenemase OXA-23 and OXA-51 by Etest.
The subject of assay [7] is Acinetobacter baumannii. The experiment in a line: Antibacterial activity against intI1-positive tigecycline-resistant Acinetobacter baumannii AB118 with PFGE subgroup B2 containing carbapenemase OXA-23 and OXA-51 by Etest.
In assay [8] the test system is Acinetobacter baumannii. The assay is described as follows: Antibacterial activity against intI1-positive tigecycline-susceptible Acinetobacter baumannii AB095 with PFGE subgroup E containing carbapenemase OXA-23 and OXA-51 by Etest.
The subject of assay [9] is Acinetobacter baumannii. The assay is described as follows: Antibacterial activity against intI1-positive tigecycline-resistant Acinetobacter baumannii AB173 with PFGE subgroup B1 containing carbapenemase OXA-23 and OXA-51 by Etest.
In assay [10] the test system is Acinetobacter baumannii. The experiment in a line: Antibacterial activity against intI1-positive tigecycline-intermediate Acinetobacter baumannii AB166 with PFGE subgroup A3 containing carbapenemase OXA-51 by Etest.
Assay [11] concerns Acinetobacter baumannii. The assay is described as follows: Antibacterial activity against intI1-positive tigecycline-susceptible Acinetobacter baumannii AB110 with PFGE subgroup C containing carbapenemase OXA-51 by Etest.
Assay [12] relates to Acinetobacter baumannii. The experiment in a line: Antibacterial activity against intI1-positive tigecycline-resistant Acinetobacter baumannii AB106 with PFGE subgroup B1 containing carbapenemase OXA-23 and OXA-51 by Etest.
The subject of assay [13] is Acinetobacter baumannii. The experiment in a line: Antibacterial activity against intI1-negative tigecycline-intermediate Acinetobacter baumannii AB098 with PFGE subgroup F containing carbapenemase OXA-23 and OXA-51 by Etest.
In assay [14] the test system is Acinetobacter baumannii. The assay is described as follows: Antibacterial activity against intI1-positive tigecycline-resistant Acinetobacter baumannii AB113 with PFGE subgroup B1 containing carbapenemase OXA-23 and OXA-51 by Etest.
The subject of assay [15] is Acinetobacter baumannii. The experiment in a line: Antibacterial activity against intI1-positive tigecycline-susceptible Acinetobacter baumannii AB018 with PFGE subgroup G containing carbapenemase OXA-58 and OXA-51 by Etest.
For assay [16], the system named is Acinetobacter baumannii. The assay is described as follows: Antibacterial activity against intI1-positive tigecycline-resistant Acinetobacter baumannii AB168 with PFGE subgroup A1 containing carbapenemase OXA-23 and OXA-51 by Etest.
The subject of assay [17] is Acinetobacter baumannii. The experiment in a line: Antibacterial activity against intI1-positive tigecycline-susceptible Acinetobacter baumannii AB039 with PFGE subgroup B1 containing carbapenemase OXA-23 and OXA-51 by Etest.

With `C[C@H]1COc2c(N3CCN(C)CC3)c(F)cc3c(=O)c(C(=O)O)cn1c23.C[C@H]1COc2c(N3CCN(C)CC3)c(F)cc3c(=O)c(C(=O)O)cn1c23.O` [LEVOFLOXACIN], the MIC in the assay on Acinetobacter baumannii [1], with Acinetobacter baumannii [2], against Acinetobacter baumannii [3], in the assay with Acinetobacter baumannii [4], in the assay with Acinetobacter baumannii [5] and with Acinetobacter baumannii [6] was > 32 µg/mL in each case. Besides, the MIC against Acinetobacter baumannii [7] is > 32 µg/mL; with Acinetobacter baumannii [8], > 32 µg/mL; with Acinetobacter baumannii [9] it was > 32 µg/mL; in the assay on Acinetobacter baumannii [10], > 32 µg/mL; against Acinetobacter baumannii [11], 12 µg/mL; in the assay on Acinetobacter baumannii [12], 32 µg/mL. Also, the MIC in the assay with Acinetobacter baumannii [13] was > 32 µg/mL; in the assay on Acinetobacter baumannii [14] it was > 32 µg/mL; in the assay with Acinetobacter baumannii [15], 6 µg/mL; in the assay on Acinetobacter baumannii [16], > 32 µg/mL.

On to `CCN1CCN(C(=O)N[C@@H](C(=O)N[C@@H]2C(=O)N3[C@@H]2SC(C)(C)[C@@H]3C(=O)O)c2ccccc2)C(=O)C1=O` [PIPERACILLIN], for which the MIC with Acinetobacter baumannii [1], in the assay on Acinetobacter baumannii [2], against Acinetobacter baumannii [3], in the assay on Acinetobacter baumannii [4], against Acinetobacter baumannii [5] and in the assay with Acinetobacter baumannii [6] was > 128 µg/mL each time. Moreover, the MIC against Acinetobacter baumannii [17], in the assay on Acinetobacter baumannii [7], in the assay with Acinetobacter baumannii [8], in the assay with Acinetobacter baumannii [9], in the assay with Acinetobacter baumannii [10] and in the assay with Acinetobacter baumannii [11] was > 128 µg/mL throughout. Moreover, the MIC against Acinetobacter baumannii [12], in the assay with Acinetobacter baumannii [13], in the assay with Acinetobacter baumannii [14], in the assay on Acinetobacter baumannii [15] and in the assay with Acinetobacter baumannii [16] was > 128 µg/mL in each case.
